Reference: patent US20030087830A1, “Low molecular weight components of cartilage, complexes of metals with amino acids, DI-peptides and analogs thereof; processes for preparation and therapeutic uses thereof” (priority 2001, published 2003)
Residues, ends and D or L forms follow the SMILES beside them.

How the values were obtained:
[1] = tested on: Endothelial cells (HUVEC, BAEC); assay: Endothelial cell proliferation; assay type: cell-based, human / bovine; conditions: for EC50: 48 hours, copper equivalent, NA = less than 50% at 1.25 mM copper equivalent, read-out: EC proliferation (EC50 mM)
Protocol: (§1) Endothelial and tumor cell proliferation assays were performed to determine the ability of test samples to inhibit endothelial cell proliferation (antiangiogenic activity), normal cell proliferation,and tumor cell proliferation.
(§2) Endothelial cells (Human umbilical vein endothelial cells (HUVEC), bovine aortic endothelial cells (BAEC)), skeletal muscle cells, human dermal fibroblasts (all from Clonetics, Walkersville, Md.) were respectively maintained in EBM-2, MDEM, SKGM and FGFM-2 complete media according to manufacturer's instructions. Tumor rat glioblastoma cell line (C6) was maintained in DMEM (Sigma, Oaksville, Ontario) supplemented with 10% fetal calf serum (FCS) and antibiotics in 5% CO2. Briefly, cells seeded in 96-well sterile tissue culture dishes were treated with increasing concentrations of different test samples for a period of 48 hours at 37° C. Cell number was then evaluated by a calorimetric assay using the cell proliferation reagent tetrazolium salt and the fluorimetric assay using DNA dye (Hoescht) according to the procedure established by the manufacturer (Boehringer Mannhein). The conversion of these tetrazolium salts into formazan occurs only in metabolically active cells. The percentage of cell inhibition was determined by comparison to untreated cells.
(§3) According to the endothelial cell proliferation assay, the relative effectiveness of two compounds is compared by reference to the EC50 thereof. The EC50 is the concentration of compound at which the number of endothelial cells is reduced by 50% as compared to control. The efficacy of the test samples in EVT is established by the percent of eggs with altered angiogenesis at a given inhibitor dose of 0.6 mg of copper equivalent (see FIG. 6 for examples). A comparison of the antiangiogenic activity of the compounds of the present invention with divalent metal salts (CuCl2, MgCl2, ZnCl2, CoCl2) and uncoupled alpha-amino acids, alpha-imino acids, dipeptides, and nitrogenated molecules comprising a carboxylic acid group, such as creatine, is provided to illustrate that the formation of the amino acid-copper complex gives rise to complexes having antiangiogenic activity.

[2] = tested on: Lewis lung carcinoma clone M27; assay: Lewis Lung Carcinoma metastatic mouse model (LLC); assay type: in vivo, C57BL/10 female mice; conditions: for Antimetastatic activity (% inhibition) (at 2.5 mg/kg of Cu-complex): intraperitoneal daily for two weeks, lung surface metastases
Description: The Lewis Lung Carcinoma mouse model (LLC) was used to determine the ability of different test samples to inhibit the formation of metastases within the lung. The Lewis lung carcinoma clone M27, with a high metastatic potential to the lung, was established by Dr P. Brodt (Brodt P, Characterization of two highly metastatic variants of Lewis lung carcinoma with different organ specificities. Cancer Res., 46: 2442, 1986). This model is well established and is known for its predictive correlation between in vitro and in vivo activity. Briefly, LLC cells were transplanted subcutaneously in the axillary region of the right flank of C57BL/10 female mice (Charles River Inc.) When the primary tumor reached a size of 0.5-1.0 cm^3 (day 10 post-inoculation), the tumor was carefully separated from the surrounding healthy tissues. Treatment with different test samples started the day following tumor removal (day 11 post-inoculation). Saline or different test samples were administered daily for two weeks by intraperitoneal injection (0.2 ml of each dose). As previous experiments had shown that a period of approximately two weeks after removal of the primary tumor was sufficient to obtain an average of 30 to 50 nodules on the lung surface, animals were sacrificed in a CO2 chamber two weeks later. Following autopsy, both lungs were removed, weighed and fixed in 10% Bouin's fixative. Lung surface metastases were counted using a stereomicroscope (4×).

[3] = tested on: blood vessel formation in the vitelline membrane of chick embryo; assay: Embryonic Vascularization Test (EVT); assay type: in vivo; conditions: for EVT activity (in words): in vivo
Protocol: The Embryonic Vascularization Test (EVT) was performed to determine the ability of test samples to inhibit the formation of new blood vessels (antiangiogenic activity).
The normal development of a chick embryo involves the formation of an external vascular system located in the vitelline membrane which carries nutrients from the vitellus (yolk) to the developing embryo. When placed onto the vitelline membrane, antiangiogenic substances can inhibit the blood vessel formation that occurs in the vitelline membrane. Briefly, methylcellulose discs (an inert solid and transparent matrix) containing different test samples were placed on the external border of the vascular perimeter of the vitelline membrane, where the angiogenic process occurs. Vascularization was assessed 24 hours after disc deposition, and results were expressed as the percent of embryos in which blood vessel formation was affected. The blood vessel formation was considered affected when its growing path was either deviated, or diminished or when there was no growth observed beyond the disc as compared to the negative control. The results are expressed as 0, +, and ++ where 0 is for a lower response than 25 percent of the eggs; + is for a response between 25 and 50 percent; and ++ is for an antiangiogenic response observed in more than 50 percent of the eggs.
as §3

Endothelial cells [4] = assay: Endothelial cell tubule formation assay (tubulogenesis); assay type: cell-based; set-up: key to Tubulogenesis: 0: Numerous capillary-like tube forming pentagonal network; +: Decrease of capillary-like tubes; ++: Dramatic decrease of capillary-like tubes; +++: Absence of capillary-like tubes
Protocol: The endothelial cell tubule formation assay is a semi-quantitative assay that was performed to determine the ability of test samples to inhibit this multi-step process, which involves cell adhesion, migration, differentiation and growth, using a commercial kit (Chemicon). Briefly, endothelial cells were seeded on solid gel of Ecmatrix™ (Chemicon), basement proteins prepared from the Engelbreth Holm-Swarm (EHS) mouse tumor in microplate in a E-99 media (Sigma) supplemented with 5% FBS and VEGF (50 ng/ml) in the presence or absence of the test sample. Cells were incubated for a period of 24 hours at 37° C. Pictures were taken on the entire tissue culture dish using a binocular microscope for further evaluation.

Endothelial cells [5] = assay: Endothelial cell migration assay (VEGF, modified Boyden chamber); assay type: cell-based; conditions: for Cell Migration (% inhibition): copper complexes, concentration not given, VEGF, 4.5 hours
Protocol: The endothelial cell migration assay was performed to determine the ability of test samples to inhibit the chemotaxic activity of vascular endothelial growth factor (VEGF;R/D System, MN) using a modified Boyden chamber (Transwell™, Corning/Costar). Briefly, polyvinylidene difluoride filters (PVDF) were coated with Pronectin F (Biosources, CA), a constituent of basement membrane barrier. Boyden chambers were assembled by adding VEGF to the culture media in the lower chamber (chemoattractant). Endothelial cells suspended in cultured media in the presence or the absence of the test samples were added to the upper chamber. The chambers were then incubated for a period of 4.5 hours at 37° C. At the end of the incubation period, the cells from both side of the PVDF membrane were fixed with 3.7% formaldehyde. Cells from the upper surface of the membrane were mechanically removed, and the cells remaining on the underside of the membrane were stained with crystal violet (0.5%; Sigma). Cells were then carefully rinsed and the dye fixed to the cells was quantified with a microplate reader ([…]) after its solubilization with a solution of 50% citric acid (0.1M) in water and 50% ethanol.

human dermal fibroblasts = assay: Fibroblast proliferation; assay type: cell-based; conditions: 48 hours; free amino acids and Glu-Trp 2.5 mM, CuCl2 1.25 mM
Protocol: as §1, §2

[6] = tested on: Striated muscle cells (skeletal muscle cells); assay: Striated muscle cell proliferation; assay type: cell-based; conditions: 48 hours; free amino acids and Glu-Trp 2.5 mM, CuCl2 1.25 mM
Protocol: as §1, §2

[7] = Affinity of the amino acid with copper; assay type: physicochemical
[8] = tested on: bFGF-stimulated blood vessel formation in Matrigel; assay: Matrigel in vivo angiogenesis assay; set-up: species or system C57B1/6 mice; conditions: for Matrigel in vivo % inhibition: intra-peritoneal daily 10 days
Protocol: The Matrigel™ in vivo assay was performed to determine the ability of test samples to inhibit blood vessel formation (antiangiogenic activity) and to establish their bioavailability in vivo.
Briefly, liquid Matrigel™ (Becton Dickinson, Bedford, Mass.) was maintained at 4° C. and mixed thoroughly for at least 3 hours with 1,500 ng/ml basic fibroblast growth factor (bFGF) (R&D Systems, Minneapolis, Minn.) used as the primary angiogenic stimulus. The mixture (0.5 ml) was injected subcutaneously into the ventral midline of C57B1/6 mice, and treatment with different test samples or saline solution was initiated the same day. Additional animals were also injected with Matrigel™ containing no bFGF to serve as baseline controls. The animals were treated daily for a 10 day period (intra-peritonealy, 0.2 ml of each dose). At day 11, animals were injected with FITC-dextran 20 min prior to euthanizing treated mice. Matrigel™ gels were removed along with underlying peritoneum and prepared for FITC-dextran detection by fluorimetry. The concentration of FITC-dextran in the gels was calculated from a known concentration of FITC-dextran using a standard curve. The FITC-dextran content of the gels from compound-treated animals and controls was expressed as a percent of the positive bFGF-treated controls after the baseline control of FITC-dextran levels were subtracted from all groups.

[9] = activity at 0.6 mg equivalent Copper
[10] = copper complexes, concentration not given, VEGF 50 ng/ml, 24 hours

Affinity of the AA with Cooper [7]	Compound	Endothelial cell proliferation activity (in words) [1]	Antimetastatic activity (% inhibition) (at 2.5 mg/kg of Cu-complex) [2]	EVT (% of inhibition) [3, 9]	EVT activity (in words) [3]	Tubulogenesis activity (in words) (Endothelial cells [4])	Tubulogenesis (Endothelial cells [4]; 2.5 mM free (not complexed) ligand)	Cell migration activity (in words) (Endothelial cells [5])	inhibition at 2500 µM (Endothelial cells [5]; Endothelial cell, 2.5 mM free (not complexed) ligand)	EC50 [1]	EC50 (human dermal fibroblasts)	Anti-metastatic activity in vivo (in words) ([2]; mouse, in vivo)	EVT (% of inhibition) ([3]; 0.6 mg copper equivalent, percent of embryos with affected blood vessel formation, 24 hours after disc deposition)	EC50 [6]	Tubulogenesis (Endothelial cells [4]; [10])	Cell Migration (% inhibition) (Endothelial cells [5])	Matrigel in vivo % inhibition ([8]; 7.0 mg/Kg equivalent copper)	Matrigel in vivo antiangiogenic activity (in words) ([8]; mouse, in vivo)	Matrigel in vivo % inhibition ([8]; 1.4 mg/Kg equivalent copper)
	N[C@@H](CCC(=O)O)C(=O)N[C@@H](Cc1c[nH]c2ccccc12)C(=O)O [Free Glu-Trp, glutamyl-tryptophane, reference compound] (H-Glu-Trp-OH)	almost inactive	22.8%	0 (0 non-active (less than 25% of inhibition))	almost inactive	did not show any activity	0	did not show any activity	10%										
	(Glu—Trp)2-Cu [Compound 33]		44%	++ (++ more than 50% of inhibition)		important activity		important activity		0.23 mM	0.66 mM	more active than the free di-peptide	60%	0.47 mM	+++	96%			
19.4	N[C@@H](Cc1c[nH]cn1)C(=O)[O-].N[C@@H](Cc1c[nH]cn1)C(=O)[O-].[Cu+2] [Compound 10, L-His:Cu:L-His]	inactive	63.0%	0 (0 non-active (less than 25% of inhibition))	inactive	did not show any activity		did not show any activity		0.9 mM					0	65%	63.4%	more active than compound 6	
15.4	C[C@@H](O)[C@H](N)C(=O)[O-].C[C@@H](O)[C@H](N)C(=O)[O-].[Cu+2] [Compound 5, L-Thr:Cu:L-Thr]			++ (++ more than 50% of inhibition)		important activity		important activity		0.3 mM	1.34 mM				++	90%	59.4%		47.7%
